The results in this text go back to patent publication US20240199601A1, “QUINONE COMPOUND AND PHARMACEUTICAL USE THEREOF” (NANJING SHUPENG LIFE SCIENCE CO., LTD., priority 2021, published 2024).

In assay [1] the test system is autophagy related protein (LC3B). The assay is described as follows: LC3B expression in RAW264.7 cells (protein hybridization). Type of assay: cell-based. Particulars: different concentrations, 24 hours. The procedure:
(§1) RAW264.7 cells were inoculated into two six-well plates and enabled to grow to a density of about 90%, and SP3101 and SP3102 of different concentrations were added, respectively. 24 hours later, the cells were lysed with a radio immunoprecipitation assay (RIPA) lysis buffer, and the expression of proteins was detected by protein hybridization.
(§2) Phosphorylation of serine at the 127th site of AMPK is used as an activation marker. […] It can be seen that the compounds, represented by the SP3101 and the SP3102, of the present invention are used as an AMPK agonist.

The test system of assay [2] is MHV-A59 virus-induced lung inflammation. The assay is described as follows: MHV-A59 virus-induced lung inflammation of mice. The format is in vivo, C57BL/B6 mice. Particulars: 20 mg/kg/day by gavage for 5 days. The procedure: As viral pneumonia of C57BL/B6 mice can be induced by nasal dropping of an MHV-A59 virus, the ability of SP3101 to inhibit virus-induced lung inflammation of mice is studied using such model.
An MHV-A59 virus strain was purchased from Suzhou Xishan Biotechnology Co., Ltd. at a PFU/ml of 1.4×10^7.
6-week-old mice were divided into 3 groups with 8 mice in each group. After anesthesia, the mice in a blank control group were administered with normal saline through the noses, and viral pneumonia models of the other two groups were constructed as follows: 10 μL of an MHV was injected into the nose of each mouse at a PFU of 1.4×10^5 with 5 μL into the left nostril and the right nostril, respectively, and about 3-6 hours later, the mice woke up. The mice in a model treatment group were administered with an SP3101 aqueous solution by gavage at a dose of 20 mg/kg body weight/day (mg/kg/day).
After continuous administration for 5 days, the mice were anesthetized and dissected 4 hours after the last administration, and the lungs were taken out, fixed with paraformaldehyde and stored for hematoxylin-eosin (HE) section staining.

For assay [3], the system named is inflammatory pain model (complete Freund's adjuvant). The assay is described as follows: Inflammatory pain model (complete Freund's adjuvant), mechanical pain threshold. The format is in vivo, SD rats. Particulars: rats. On the procedure:
4 SD rats with a body weight of 200-250 g were used as a blank control (NC), and normal saline was injected into the soles of the left feet of the rats. Inflammatory pain models of 18 rats were constructed, that is to say, 100 μL of a complete Freund's adjuvant was injected into soles of the left feet of the rats, mechanical pain thresholds of the left feet were detected by an ALMEMO2490 data collector 24 hours later, 2 rats with a pain threshold of greater than 15 were abandoned, and the other 16 rats were randomly divided into 4 groups with 4 rats in each group and then administered with water as a positive control (PC), SP3101 (20 mg/kg), PQQ (20 mg/kg) and ibuprofen (25 mg/kg/day) by gavage, respectively.

Assay [4] concerns antioxidant transcription factor (Nrf2). The assay is described as follows: Nrf2 expression in RAW264.7 cells (protein hybridization). Particulars: different concentrations, 24 hours. The format is cell-based. The procedure: as §1, §2
For assay [5], the system named is paclitaxel-induced hyperalgesia. The assay is described as follows: Paclitaxel chemotherapy pain model. Type of assay: in vivo, B6 mice. To be noted: 40 mg/kg by gavage once a day for 15 days, paclitaxel 4 mg/kg i.p. x4, mice, Von Frey 0.07 g and 0.4 g. An excerpt: A total of 30 8- to 10-week-old male B6 mice were selected and allowed to adapt to the environment for three days.
On DAY 0, mechanical pain thresholds were detected by using Von Frey fibrils, the mice with abnormal pain thresholds were abandoned, and the basic pain thresholds were basically about 0.6-1.0 g. According to the basic pain thresholds, a pain threshold of 0.07 g was used in this test, and a pain threshold of 0.4 g was used in subsequent detection. Behaviors such as foot lifting and foot licking were identified as positive responses. […] The mice were randomly divided into the following groups: (1) a model control group (PC, n=10), (2) an SP3101 group administered at a dose of 40 mg/kg (n=10) by gavage and (3) a blank control group (NC). The mice in the model control group were administrated with double distilled water by gavage, the mice in the model control group and the SP3101 group were administrated with paclitaxel (4 mg/kg) by intraperitoneal injection 0.5 hour later, and the mice in the blank control group were administrated with normal saline by intraperitoneal injection. […] The first modeling day was determined as DAY 0. […] On DAY 0, 3, 7, 9, 14, 18 and 21, the mechanical pain thresholds were detected.

In assay [6] the test system is AMPK. The assay is described as follows: AMPK agonist test in RAW264.7 cells (protein hybridization, p-AMPK). Type of assay: cell-based. To be noted: 0.1 μM, 24 hours. On the procedure: as §1, §2

In the case of `O=C1C(=O)c2nc(O)cc(C(=O)O)c2-c2[nH]ccc21` [SP3101, 4,5-dioxo-4,5-dihydro-1H-pyrrolo[2,3-f]quinone-7-hydroxy-9-carboxylic acid], the “expression of autophagy related protein (LC3B)” value in assay [1] was “also increased”. Besides, the “inhibition of virus-induced lung inflammation (HE sections)” value in assay [2] is “obvious effect of inhibiting virus-induced lung inflammation”. Also, the overall analgesic profile entry in assay [3] (CFA inflammatory pain model, oral) is “rapid analgesic effect and a long-acting analgesic effect”. In addition, the “analgesic effect on day 5-7” value in assay [3] (single oral 20 mg/kg, compared with model group (PC)) is “the analgesic effect is reduced”. Also, the “duration of the analgesic effect” value in assay [3] (single oral dose (SP3101 20 mg/kg)) was 72 h. Also, the “analgesic effect 1.5 hours after oral administration” value in assay [3] (single oral dose (SP3101 20 mg/kg), mechanical pain threshold vs model group) is “obvious analgesic effect”. For the same compound, the “expression of antioxidant transcription factor (Nrf2)” value in assay [4] was “increased in a dose-dependent manner”. For the same compound, in assay [5], the “alleviation of paclitaxel-induced hyperalgesia” value was “obvious effect of alleviating the paclitaxel-induced hyperalgesia”. For the same compound, the “activation of AMPK (expression of p-AMPK)” value in assay [6] was “obviously activate the AMPK”.
